Results: patent publication US20220402901A1 (Bial - R&D Investments, S.A., priority 2019, published 2022)

Biological target: T1, Human acid ceramidase (hACR) (Homo sapiens, UniProt Q13510)
T1 construct: expressed in transfected cells; lysates of cells overexpressing acid ceramidase
T1 sequence (Q13510 22-395): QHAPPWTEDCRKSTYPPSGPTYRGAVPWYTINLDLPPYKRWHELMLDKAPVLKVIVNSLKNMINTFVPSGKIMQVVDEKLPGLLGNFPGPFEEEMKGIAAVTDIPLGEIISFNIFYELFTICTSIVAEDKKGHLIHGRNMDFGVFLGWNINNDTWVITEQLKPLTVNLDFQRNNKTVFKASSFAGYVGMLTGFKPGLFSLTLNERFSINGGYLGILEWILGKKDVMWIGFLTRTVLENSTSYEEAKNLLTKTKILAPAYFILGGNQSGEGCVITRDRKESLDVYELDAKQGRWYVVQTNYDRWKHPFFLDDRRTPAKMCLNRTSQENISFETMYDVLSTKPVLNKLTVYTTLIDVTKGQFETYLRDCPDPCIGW
Assay: Acid ceramidase biochemical fluorescent assay (cell lysates overexpressing acid ceramidase, substrate Rbm14-12)
Conditions: 10 μg lysate protein, 1 hr preincubation at RT, pH 4.5, Rbm14-12 6.3 μM
Experimental: The ability of exemplary compounds to inhibit acid ceramidase was measured.
Cell lysates overexpressing acid ceramidase were used as the enzyme source for compound potency determination in a biochemical fluorescent assay. Briefly, compounds were preincubated with 10 μg protein of cell lysates in a dose-response manner for 1 hr at RT in the assay buffer containing 25 mM NaAC and 100 mM NaCl, pH 4.5. The reaction was initiated by the addition of substrate Rbm14-12 at a final concentration of 6.3 μM. The reaction was run at RT for 1 hr before it was stopped by the addition of the stopping buffer containing 20% methanol (v/v), 1 mg/ml NaIO4, 0.1 M glycine, pH 10.6. The samples were incubated with the stopping buffer at RT for 1 hr to allow the fluorescent product to be formed. Finally the plate was read with SpectraMax i3 plate reader (Molecular Devices) at ex360 nm and em446 nm. Data were collected and used to determine the IC50 values of compounds by curve fitting to the four-parameter inhibition equation.
The symbol “A” indicates inhibition of less than 0.2 μM; the symbol “B” indicates inhibition in the range of 0.2 μM up to 1 μM; and the symbol “C” indicates inhibition of greater than 1 μM.

IC50	Compound
> 1000 nM	CCOCCNC(=O)N1CCN(c2ccc3c(c2)oc(=O)n3C)CC1(C)C [Example 55, N-(2-Ethoxyethyl)-2,2-dimethyl-4-(3-methyl-2-oxo-1,3-benzoxazol-6-yl)piperazine-1 carboxamide]
> 1000 nM	Cn1c(=O)oc2cc(N3CCC4(CCN(C(=O)NCCCCc5ccccc5)CC4)CC3)ccc21 [Example 71, 9-(3-Methyl-2-oxo-1,3-benzoxazol-6-yl)-N-(4-phenylbutyl)-3,9-diazaspiro[5.5]undecane-3-carboxamide]
200 to 1000 nM	C[C@H]1CN(c2ccc3c(c2)oc(=O)n3C)CCN1C(=O)NCCCCc1ccccc1 [Example 49, (2S)-2-Methyl-4-(3-methyl-2-oxo-1,3-benzoxazol-6-yl)-N-(4-phenylbutyl)piperazine-1-carboxamide]
> 1000 nM	O=C(NCCCCc1ccccc1)N1CCCCC1c1ccc2[nH]c(=O)oc2c1 (stereo not drawn) [Example 36, 2-(2-Oxo-3H-1,3-benzoxazol-6-yl)-N-(4-phenylbutyl)piperidine-1-carboxamide]
> 1000 nM	O=C(NCCCCc1ccccc1)N1CCC2(CC1)CN(c1ccc3[nH]c(=O)oc3c1)C2 [Example 69, 2-(2-Oxo-3H-1,3-benzoxazol-6-yl)-N-(4-phenylbutyl)-2,7-diazaspiro[3.5]nonane-7-carboxamide]
> 1000 nM	CC(C)CNC(=O)N1CCC(c2ccc3c(c2)oc(=O)n3C)C[C@H]1C (mixture of isomers) [Example 19, N-iso-Butyl (2R)-methyl-4-(3-methyl-2-oxo-1,3-benzoxazol-6-yl)piperidine-1-carboxamide]
< 200 nM	C[C@@H]1CC(c2ccc3c(c2)oc(=O)n3C)CCN1C(=O)NCCCCc1ccccc1 (mixture of isomers) [Example 17, (2R)-2-Methyl-4-(3-methyl-2-oxo-1,3-benzoxazol-6-yl)-N-(4-phenylbutyl)piperidine-1-carboxamide]
> 1000 nM	O=C(NCCCCc1ccccc1)N1CCN(c2ccc3[nH]c(=O)oc3c2)CC1 [Example 45, 4-(2-Oxo-3H-1,3-benzoxazol-6-yl)-N-(4-phenylbutyl)piperazine-1-carboxamide]
< 200 nM	Cn1c(=O)oc2cc(N3C[C@H]4CN(C(=O)NCCCCc5ccccc5)C[C@H]4C3)ccc21 [Example 66, (3aS,6aR)- and (3aR,6aS)-2-(3-Methyl-2-oxo-1,3-benzoxazol-6-yl)-N-(4-phenylbutyl)-1,3,3a,4,6,6a-hexahydropyrrolo[3,4-c]pyrrole-5-carboxamide]
> 1000 nM	Cn1c(=O)oc2cc(C3CCN(C(=O)NC4CCCCC4)CC3)ccc21 [Example 5, N-Cyclohexyl-4-(3-methyl-2-oxo-1,3-benzoxazol-6-yl)piperidine-1-carboxamide]
> 1000 nM	O=C(NCCCCc1ccccc1)N1CCCC(c2ccc3[nH]c(=O)oc3c2)C1 (stereo not drawn) [Example 11, 3-(2-Oxo-3H-1,3-benzoxazol-6-yl)-N-(4-phenylbutyl)piperidine-1-carboxamide]
200 to 1000 nM	Cn1c(=O)oc2cc(C3=CCCN(C(=O)NCCCCc4ccccc4)C3)ccc21 [Example 15, 5-(3-methyl-2-oxo-1,3-benzoxazol-6-yl)-N-(4-phenylbutyl)-3,6-dihydro-2H-pyridine-1-carboxamide]
< 200 nM	CN(C)CCn1c(=O)oc2cc(C3CCN(C(=O)NCCCCc4ccccc4)C(C)(C)C3)ccc21 (stereo not drawn) [Example 32, 4-[3-[2-(Dimethylamino)ethyl]-2-oxo-1,3-benzoxazol-6-yl]-2,2-dimethyl-N-(4-phenylbutyl)piperidine-1-carboxamide]
> 1000 nM	O=C(NCCCCc1ccccc1)N1CC2(CCN(c3ccc4[nH]c(=O)oc4c3)CC2)C1 [Example 67, 7-(2-Oxo-3H-1,3-benzoxazol-6-yl)-N-(4-phenylbutyl)-2,7-diazaspiro[3.5]nonane-2-carboxamide]
> 1000 nM	Cn1c(=O)oc2cc(N3CC4(CCN(C(=O)NCCCCc5ccccc5)CC4)C3)ccc21 [Example 70, 2-(3-Methyl-2-oxo-1,3-benzoxazol-6-yl)-N-(4-phenylbutyl)-2,7-diazaspiro[3.5]nonane-7-carboxamide]
